# Patent US20240101546A1, “HETEROARYL-ACETYLENES, PHARMACEUTICAL COMPOSITIONS THEREOF, AND THEIR THERAPEUTIC APPLICATIONS” (Eubulus Biotherapeutics Inc., priority 2020, published 2024)
# Test system: hepatocellular carcinoma cell line Hub-7
# Experiment: Cell proliferation assay, Hub-7 (CELL-TITER GLO)
# Assay type: cell-based
# Settings: Hub-7 cells, 24 h incubation, cell viability by CELL-TITER GLO, top concentration 10 μM; read-out: EC50, Inhibition of Hub-7 Cell Proliferation
# Protocol: The activity of a compound was determined in a cell proliferation assay using the hepatocellular carcinoma cell line Hub-7. Cells (4,000 cells per well) were seeded in a 96-well tissue culture plate. After incubated overnight, the compound was added at predetermined concentrations, starting with 10 μM and followed by 3-fold serial dilution. After the cells were incubated for 24 h, cell viability was determined using a CELL-TITER GLO® assay. The CELL-TITER GLO® reagent (50 μL) was added to each well and the luminescence was measured by a multimode microplate reader after a brief period of shaking. EC50 values were determined for the compound. The results are summarized in Table 1, wherein A represents a value no greater than 200 nM, B represents a value greater than 200 nM but no greater than 1 μM, C represents a value greater than 1 μM but no greater than 5 μM, and D represents a value greater than 5 μM.
row,SMILES,EC50 [nM]
1,"C#Cc1nc(NC(=O)NCc2ccc(-c3cccc4c3S(=O)(=O)C=C4)cc2)cs1 [Compound A1, 1-(4-(1,1-Dioxidobenzo[b]thiophen-7-yl)benzyl)-3-(2-ethynylthiazol-4-yl)urea]",200 to 1000
2,"C#Cc1nc(NC(=O)NCc2ccc(-c3cccc4c3S(=O)(=O)CC4O)cc2)cs1 (centres unmarked) [Compound A2, 1-(2-Ethynylthiazol-4-yl)-3-(4-(3-hydroxy-1,1-dioxido-2,3-dihydrobenzo[b]-thiophen-7-yl)benzyl)urea]",1000 to 5000
3,"C#Cc1nc(NC(=O)NCc2ccc(-c3cccc4c3S(=O)(=O)CC4=O)cc2)cs1 [Compound A3, 1-(4-(1,1-Dioxido-3-oxo-2,3-dihydrobenzo[b]thiophen-7-yl)benzyl)-3-(2-ethynyl-thiazol-4-yl)urea]",1000 to 5000
4,"C#Cc1nc(NC(=O)NCc2ccc(-c3cc4ncsc4c4c3CNC4=O)cc2)cs1 [Compound A4, 1-(2-Ethynylthiazol-4-yl)-3-(4-(8-oxo-7,8-dihydro-6H-thiazolo[5,4-e]isoindol-5-yl)benzyl)urea]",200 to 1000
5,"C#Cc1nc(NC(=O)NCc2ccc(-c3cccc(N4CC[C@H](O)C4)c3)cc2)cs1 [Compound A5, (S)-1-(2-Ethynylthiazol-4-yl)-3-((3′-(3-hydroxypyrrolidin-1-yl)-[1,1′-biphenyl]-4-yl)methyl)urea]",200 to 1000
6,"C#Cc1nc(NC(=O)NCc2ccc(-c3cccc4ncsc34)cc2)cs1 [Compound A6, 1-(4-(benzo[d]thiazol-7-yl)benzyl)-3-(2-ethynylthiazol-4-yl)urea]",≤ 200
7,"C#Cc1nc(NC(=O)NCc2ccc(-c3cccc(N4CCCC4)c3)cc2)cs1 [Compound A7, 1-(2-Ethynylthiazol-4-yl)-3-((3′-(pyrrolidin-1-yl)-[1,1′-biphenyl]-4-yl)methyl)urea]",≤ 200
8,"C#Cc1nc(NC(=O)NCc2ccc(-c3ccccc3)cc2)cs1 [Compound A8, 1-([1,1′-Biphenyl]-4-ylmethyl)-3-(2-ethynylthiazol-4-yl)urea]",≤ 200
9,"C#Cc1nc(NC(=O)NCc2ccc(-c3cccc4ncnc(O)c34)cc2)cs1 [Compound A9, 1-(2-Ethynylthiazol-4-yl)-3-(4-(4-hydroxyquinazolin-5-yl)benzyl)urea]",≤ 200
10,"C#Cc1nc(NC(=O)NCc2ccc(-c3cccc(C(N)=O)c3)cc2)cs1 [Compound A10, 4′-((3-(2-Ethynylthiazol-4-yl)ureido)methyl)-[1,1′-biphenyl]-3-carboxamide]",200 to 1000
11,"C#Cc1nc(NC(=O)NCc2ccc(-c3cccc4ncn(C)c(=O)c34)cc2)cs1 [Compound A11, 1-(2-Ethynylthiazol-4-yl)-3-(4-(3-methyl-4-oxo-3,4-dihydroquinazolin-5-yl)-benzyl)urea]",200 to 1000
12,"C#Cc1nc(NC(=O)NCc2ccc(-c3cc4ncsc4cc3F)cc2)cs1 [Compound A12, 1-(2-Ethynylthiazol-4-yl)-3-(4-(6-fluorobenzo[d]thiazol-5-yl)benzyl)urea]",200 to 1000
13,"C#Cc1nc(NC(=O)NCc2ccc(-c3ccccc3S(=O)(=O)NC)cc2)cs1 [Compound A13, 4′-((3-(2-Ethynylthiazol-4-yl)ureido)methyl)-N-methyl-[1,1′-biphenyl]-2-sulfonamide]",200 to 1000
14,"C#Cc1nc(NC(=O)NCc2ccc(-c3cccc(C(=O)NC)c3)cc2)cs1 [Compound A14, 4′-((3-(2-Ethynylthiazol-4-yl)ureido)methyl)-N-methyl-[1,1′-biphenyl]-3-carboxamide]",200 to 1000
15,"C#Cc1nc(NC(=O)NCc2ccc(-c3c(C)ccc4c3cnn4C)cc2)cs1 [Compound A15, 1-(4-(1,5-Dimethyl-1H-indazol-4-yl)benzyl)-3-(2-ethynylthiazol-4-yl)urea]",≤ 200
16,"C#Cc1nc(NC(=O)NCc2ccc(-c3cccc4c3cnn4C)cc2)cs1 [Compound A16, 1-(2-Ethynylthiazol-4-yl)-3-(4-(1-methyl-1H-indazol-4-yl)benzyl)urea]",≤ 200
17,"C#Cc1nc(NC(=O)NCc2ccc(-c3c(C(=O)NC)ccc4ncsc34)cc2)cs1 [Compound A17, 7-(4-((3-(2-Ethynylthiazol-4-yl)ureido)methyl)phenyl)-N-methylbenzo[d]-thiazole-6-carboxamide]",1000 to 5000
18,"C#Cc1nc(NC(=O)NCc2ccc(-c3cccc4ccnc(O)c34)cc2)cs1 [Compound A18, 1-(2-Ethynylthiazol-4-yl)-3-(4-(1-hydroxyisoquinolin-8-yl)benzyl)urea]",200 to 1000
19,"C#Cc1nc(NC(=O)NCc2ccc(-c3c(C(N)=O)ccc4ncsc34)cc2)cs1 [Compound A19, 7-(4-((3-(2-Ethynylthiazol-4-yl)ureido)methyl)phenyl)benzo[d]thiazole-6-carboxamide]",200 to 1000
20,"C#Cc1nc(NC(=O)NCc2ccc(-c3cc(C(N)=O)cc4c3cnn4C)cc2)cs1 [Compound A20, 4-(4-((3-(2-Ethynylthiazol-4-yl)ureido)methyl)phenyl)-1-methyl-1H-indazole-6-carboxamide]",1000 to 5000
21,"C#Cc1nc(NC(=O)NCc2ccc(-c3cc(C(=O)NC)cc4c3cnn4C)cc2)cs1 [Compound A21, 4-(4-((3-(2-Ethynylthiazol-4-yl)ureido)methyl)phenyl)-N,1-dimethyl-1H-indazole-6-carboxamide]",200 to 1000
22,"C#Cc1nc(NC(=O)NCc2ccc(-c3cc(C(=O)OC)cc4c3cnn4C)cc2)cs1 [Compound A22, Methyl 4-(4-((3-(2-ethynylthiazol-4-yl)ureido)methyl)phenyl)-1-methyl-1H-indazole-6-carboxylate]",≤ 200
23,"C#Cc1nc(NC(=O)NCc2ccc(-c3cc(C(=O)N(C)C)cc4c3cnn4C)cc2)cs1 [Compound A23, 4-(4-((3-(2-Ethynylthiazol-4-yl)ureido)methyl)phenyl)-N,N,1-trimethyl-1H-indazole-6-carboxamide]",200 to 1000

# Second part, the compound after the results:
row,EC50 [nM],SMILES
1,200 to 1000,"C#Cc1nc(NC(=O)N2CCCC2c2ccc(-c3cccc4ncsc34)cc2)cs1 (centres unmarked) [Compound B1, 2-(4-(Benzo[d]thiazol-7-yl)phenyl)-N-(2-ethynylthiazol-4-yl)pyrrolidine-1-carboxamide]"
2,≤ 200,"C#Cc1nc(NC(=O)N2CC(c3ccc(-c4cccc5ncsc45)cc3)C2)cs1 [Compound B2, 3-(4-(Benzo[d]thiazol-7-yl)phenyl)-N-(2-ethynylthiazol-4-yl)azetidine-1-carboxamide]"
3,200 to 1000,"C#Cc1nc(NC(=O)N2CCc3cc(-c4cccc5ncsc45)ccc3C2)cs1 [Compound B3, 6-(Benzo[d]thiazol-7-yl)-N-(2-ethynylthiazol-4-yl)-3,4-dihydroisoquinoline-2(1H)-carboxamide]"
4,200 to 1000,"C#Cc1nc(NC(=O)N2Cc3ccc(-c4cccc5ncsc45)cc3C2)cs1 [Compound B4, 5-(Benzo[d]thiazol-7-yl)-N-(2-ethynylthiazol-4-yl)isoindoline-2-carboxamide]"
5,≤ 200,"C#Cc1nc(NC(=O)N2CCN(c3ccc(-c4cccc5ncsc45)cc3)CC2)cs1 [Compound B5, 4-(4-(Benzo[d]thiazol-7-yl)phenyl)-N-(2-ethynylthiazol-4-yl)piperazine-1-carboxamide]"
6,≤ 200,"C#Cc1nc(NC(=O)N2CCC(c3ccc(-c4cccc5ncsc45)cc3)CC2)cs1 [Compound B6, 4-(4-(Benzo[d]thiazol-7-yl)phenyl)-N-(2-ethynylthiazol-4-yl)piperidine-1-carboxamide]"
7,200 to 1000,"C#Cc1nc(C(=O)NCCc2ccc(-c3cc4ncsc4cc3F)cc2)cs1 [Compound C1, 2-Ethynyl-N-(4-(6-fluorobenzo[d]thiazol-5-yl)phenethyl)thiazole-4-carboxamide]"
8,≤ 200,"C#Cc1nc(C(=O)NCCc2ccc(-c3cccc4ncsc34)c(F)c2)cs1 [Compound C2, N-(4-(Benzo[d]thiazol-7-yl)-3-fluorophenethyl)-2-ethynylthiazole-4-carboxamide]"
9,200 to 1000,"C#Cc1nc(C(=O)NCCc2ccc(-c3c(C(N)=O)ccc4ncsc34)cc2)cs1 [Compound C3, 7-(4-(2-(2-Ethynylthiazole-4-carboxamido)ethyl)phenyl)benzo[d]thiazole-6-carboxamide]"
10,≤ 200,"C#Cc1nc(C(=O)NCCc2ccc(-c3cccc(C(=O)NC)c3)cc2)cs1 [Compound C4, 2-Ethynyl-N-(2-(3′-(methylcarbamoyl)-[1,1′-biphenyl]-4-yl)ethyl)thiazole-4-carboxamide]"
11,≤ 200,"C#Cc1nc(C(=O)NCCc2ccc(-c3c(F)ccc4ncsc34)cc2)cs1 [Compound C5, 2-Ethynyl-N-(4-(6-fluorobenzo[d]thiazol-7-yl)phenethyl)thiazole-4-carboxamide]"
12,≤ 200,"C#Cc1nc(C(=O)NCCc2ccc(-c3ccccc3S(=O)(=O)N(C)C)cc2)cs1 [Compound C6, N-(2-(2′-(N,N-Dimethylsulfamoyl)-[1,1′-biphenyl]-4-yl)ethyl)-2-ethynylthiazole-4-carboxamide]"
13,200 to 1000,"C#Cc1nc(C(=O)NCCc2ccc(-c3cc(C(N)=O)cc4ncsc34)cc2)cs1 [Compound C8, 7-(4-(2-(2-Ethynylthiazole-4-carboxamido)ethyl)phenyl)benzo[d]thiazole-5-carboxamide]"
14,200 to 1000,"C#Cc1nc(C(=O)NCCc2ccc(-c3cc(C(=O)NC)cc4ncsc34)cc2)cs1 [Compound C9, 7-(4-(2-(2-Ethynylthiazole-4-carboxamido)ethyl)phenyl)-N-methylbenzo[d]-thiazole-5-carboxamide]"
15,≤ 200,"C#Cc1nc(C(=O)NCCc2ccc(-c3cc(C(=O)OC)cc4ncsc34)cc2)cs1 [Compound C10, Methyl 7-(4-(2-(2-ethynylthiazole-4-carboxamido)ethyl)phenyl)benzo[d]thiazole-5-carboxylate]"
